This is an account of results in ChEMBL document CHEMBL1156454, “Essential requirement for sphingosine kinase 2 in a sphingolipid apoptosis pathway activated by FTY720 analogues” (J Biol Chem, 2007).

The test system of data set [1] is Splenocyte. Briefly: Induction of apoptosis in mouse primary splenocytes assessed as cell death after 18 hrs. Type of data set: functional, cell-based.
Data set [2] has as its target Sphingosine kinase 1 (Homo sapiens) (UniProt Q9NYA1). Kind of data set: Inhibition of Sphk1 expressed in HEK293 cells. Type of data set: cell-based.
The subject of data set [3] is Jurkat. Kind of data set: Inhibition of wild type human Jurkat cells after 18 hrs by MTT assay. Type of data set: functional, cell-based. In general terms: Tetrazolium assays rely on reduction of a dye to a coloured formazan, in cell work by metabolically active cells.
In data set [4] the test system is Lymphocyte. Briefly: Induction of apoptosis in MRL/MpJ-lpr/lpr mouse spleen lymphocytes assessed as increase in apoptotic cells in spleen at 1 mg/kg, ip by annexin V method. Type of data set: functional, organism-based. The arrangement: dose 1 mg/kg.
The test system of data set [5] is Jurkat. Kind of data set: Induction of apoptosis in human Jurkat cells assessed as PARP cleavage at 5 uM after 16 hrs. Type of data set: functional, cell-based.
The subject of data set [6] is Jurkat. Kind of data set: Induction of apoptosis in human Jurkat cells assessed as cell death after 18 hrs. Type of data set: functional, cell-based.
Data set [7] in a line: Cell viability of Sphk2-knock out mouse embryonic fibroblasts assessed as resistant cells after 18 hrs by propidium iodide exclusion assay. The class given is functional, cell-based. To be noted: Fibroblast.
The test system of data set [8] is Jurkat. Briefly: Resistance index, ratio of IC50 for 2-amino-4-(4-heptyloxyphenyl)-2-methylbutanol-resistant human Jurkat SBR2 mutant cells to IC50 for human wild type Jurkat cells. Type of data set: functional.
Data set [9] deals with Jurkat. Briefly: Resistance index, ratio of IC50 for 2-amino-4-(4-heptyloxyphenyl)-2-methylbutanol-resistant human Jurkat SBR3 mutant cells to IC50 for human wild type Jurkat cells. The class given is functional.
The subject of data set [10] is Jurkat. Kind of data set: Resistance index, ratio of IC50 for 2-amino-4-(4-heptyloxyphenyl)-2-methylbutanol-resistant human Jurkat SBR1 mutant cells to IC50 for human wild type Jurkat cells. Type of data set: functional.
Data set [11] concerns Jurkat. Briefly: Inhibition of 2-amino-4-(4-heptyloxyphenyl)-2-methylbutanol-resistant human Jurkat SBR1 mutant cells proliferation after 18 hrs by MTT assay. The class given is functional, cell-based.
Data set [12] deals with Jurkat. Kind of data set: Inhibition of human 2-amino-4-(4-heptyloxyphenyl)-2-methylbutanol-resistant human Jurkat SBR3 mutant cells proliferation after 18 hrs by MTT assay. The class given is functional, cell-based.
Data set [13] deals with Jurkat. Kind of data set: Inhibition of 2-amino-4-(4-heptyloxyphenyl)-2-methylbutanol-resistant human Jurkat SBR2 mutant cells proliferation after 18 hrs by MTT assay. Type of data set: functional, cell-based.
Data set [14] has as its system Jurkat. Briefly: Reversal of inhibition of mitochondrial function in human Jurkat cells after 18 hrs in presence of Z-VAD-fmk. The class given is functional, cell-based.
In data set [15] the test system is Splenocyte. Briefly: Induction of apoptosis in Sphk1-knock out mouse primary splenocytes assessed as resistant cells after 18 hrs by propidium iodide exclusion assay. The class given is functional, cell-based.
Data set [16] has as its system Spleen. Kind of data set: Drug level in MRL/MpJ-lpr/lpr mouse spleen assessed as (R)-2-amino-4-(4-(heptyloxy)phenyl)-2-methylbutyl dihydrogen phosphate levels per mg of tissue at 1 mg/kg, ip after 1 hr. The class given is ADME, organism-based. The following applies: in vivo. The arrangement: dose 1 mg/kg, route intraperitoneal.
Data set [17] concerns Jurkat. Briefly: Induction of apoptosis in human Jurkat SBR1 cells expressing Sphk2 after 18 hrs by MTT assay. The class given is functional, cell-based.
Data set [18] concerns Jurkat. Kind of data set: Induction of apoptosis in human Jurkat cells assessed as activation of effector capsases after 18 hrs. Type of data set: functional, cell-based.
Data set [19] relates to Lymphocyte. Kind of data set: Induction of apoptosis in MRL/MpJ-lpr/lpr mouse lymph node lymphocytes assessed as increase in apoptotic cells in lymph nodes at 1 mg/kg, ip by annexin V method. The class given is functional, organism-based. The arrangement: dose 1 mg/kg.
Data set [20] has as its system Lymphocyte. Briefly: Induction of apoptosis in MRL/MpJ-lpr/lpr mouse thymus lymphocytes assessed as increase in apoptotic cells in thymus at 1 mg/kg, ip by annexin V method. The class given is functional, organism-based. The arrangement: dose 1 mg/kg.
A short description of data set [21]: Drug level in MRL/Mpj-lpr/lpr mouse thymus assessed as (R)-2-amino-4-(4-(heptyloxy)phenyl)-2-methylbutyl dihydrogen phosphate levels per mg of tissue at 1 mg/kg, ip after 1 hr. Type of data set: ADME, organism-based. The arrangement: dose 1 mg/kg, route intraperitoneal. To be noted: in vivo.
For data set [22], the system named is Jurkat. Briefly: Induction of apoptosis in human Jurkat SBR1 mutant cells assessed as activation of effector capsases after 18 hrs. Type of data set: functional, cell-based.
Data set [23] relates to Jurkat. Briefly: Induction of apoptosis in human Jurkat SBR1 cells expressing Sphk1 after 18 hrs by MTT assay. The class given is functional, cell-based.
Data set [24] concerns Jurkat. Kind of data set: Induction of apoptosis in human Jurkat cells assessed as increase in cytosolic calcium levels after 8 hrs. Type of data set: functional, cell-based.
Data set [25] relates to Splenocyte. Kind of data set: Induction of apoptosis in Sphk2-knock out mouse primary splenocytes assessed as resistant cells after 18 hrs by propidium iodide exclusion assay. Type of data set: functional, cell-based.

Structures are written as SMILES. Active and inactive are the calls of the source. The rule behind the calls is not given here.

Chain of Sphingosine kinase 1 (Homo sapiens) (Q9NYA1 whole entry): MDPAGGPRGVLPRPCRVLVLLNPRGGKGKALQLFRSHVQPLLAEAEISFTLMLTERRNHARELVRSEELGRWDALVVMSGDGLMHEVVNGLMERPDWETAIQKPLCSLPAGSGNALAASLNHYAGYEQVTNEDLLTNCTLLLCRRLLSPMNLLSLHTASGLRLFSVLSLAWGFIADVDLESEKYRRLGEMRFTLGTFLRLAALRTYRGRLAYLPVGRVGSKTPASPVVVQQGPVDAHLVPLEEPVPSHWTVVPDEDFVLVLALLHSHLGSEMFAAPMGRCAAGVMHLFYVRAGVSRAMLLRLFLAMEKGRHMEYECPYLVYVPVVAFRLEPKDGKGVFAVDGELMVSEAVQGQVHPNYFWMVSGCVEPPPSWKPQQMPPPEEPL

For the compound `CCCCCCCOc1ccc(CC[C@@](C)(N)COP(=O)(O)O)cc1`, the outcome in [1], in data set [2] and in data set [3] was inactive.
Take `CCCCCCCOc1ccc(CC[C@](C)(N)CO)cc1`: the outcome in data set [1], in [5] and in [6] was inactive. Besides, the result in data set [4] was Active.
As usually defined, the IC50 is the point on the concentration scale where inhibition reaches its midpoint. A low value points to greater potency in that assay. As for `CCCCCCCCCCCCC/C=C/[C@@H](O)[C@@H](N)CO` [SPHINGOSINE], in data set [7], the result was inactive. The results for the “Ratio IC50” value in data set [8], in [9] and in data set [10] were 1.4, 1.7 and 1.7, respectively. The IC50 in data set [11] worked out at 3.48 µM; in data set [3], 2.01 µM; in data set [12], 3.38 µM; in data set [13], 2.88 µM.
Take `CCCCCCCCCCCCCC[C@@H](O)[C@@H](O)[C@@H](N)CO` (single isomer, unassigned) [PHYTOSPHINGOSINE]: the “Ratio IC50” value in data set [8] is 1.4; in data set [9], 1.1; in [10], 1.8. Moreover, the half-maximal inhibitory concentration (IC50) in data set [11] came out at 6.57 µM; in data set [3], 3.75 µM; in data set [12], 4.12 µM; in data set [13] it was 5.29 µM.
Take `CCCCCCCCc1ccc(CCC(N)(CO)CO)cc1`: in [14], the result was Active.
`CCCCCCCCCCCCCCC[C@@H](O)[C@@H](N)CO` [DIHYDROSPINGOSINE]: the “Ratio IC50” value in data set [8] was 1.3; in data set [9], 1.8; in [10] it was 1.4. Moreover, the IC50 in data set [11] was found to be 4.9 µM; in data set [3], 3.53 µM; in data set [12], 6.31 µM; in [13], 3.68 µM.
`COc1cc([C@@H]2c3cc4c(cc3[C@@H](O[C@@H]3O[C@@H]5CO[C@@H](C)O[C@H]5[C@H](O)[C@H]3O)[C@H]3COC(=O)[C@H]23)OCO4)cc(OC)c1O`: the result in [11], in data set [12] and in data set [13] was Active.
`CCCCCCCOc1ccc(CC[C@@](C)(N)CO)cc1`: the outcome in [15], in data set [20] and in data set [22] was inactive. Further, the Activity in data set [16] and in [21] was below 0.2 pmol/mg each time. The result in data set [17], in data set [7], in data set [18], in [19], in data set [4] and in data set [5] was Active. Besides, the result in [23], in data set [24] and in data set [25] was Active. Besides, the “Ratio IC50” value in data set [8] is on record as 3.3; in [9], 3.1; in data set [10], 3.8. Moreover, the IC50 in data set [11] was found to be 8.72 µM; in data set [3], 2.32 µM; in data set [12], 7.12 µM; in data set [13], 7.72 µM.
